Reference: ChEMBL document CHEMBL5335794, “Discovery of novel multifunctional ligands targeting GABA transporters, butyrylcholinesterase, β-secretase, and amyloid β aggregation as potential treatment of Alzheimer's disease” (Eur J Med Chem, 2023)
Activity calls are given as the source filed them. The calls are words filed in the database; no cut-off is given here.

Tests used:
Cholinesterase = Cholinesterase (Equus caballus, UniProt P81908)
Description: Inhibition of equine serum BuChE using butyrylthiocholine iodide as substrate preincubated for 5 mins followed by substrate addition and measured after 5 mins by DTNB reagent based Ellman's method

[1] = target: Amyloid-beta precursor protein (Homo sapiens) (UniProt P05067); assay: Inhibition of soluble amyloid beta40 (unknown origin) aggregation assessed as end time of amyloid polymerization at 10 uM measured after 24 hrs by ThT fluorescence based assay (reference value: […] min)
Amyloid-beta precursor protein (Homo sapiens), sequence (P05067 whole entry): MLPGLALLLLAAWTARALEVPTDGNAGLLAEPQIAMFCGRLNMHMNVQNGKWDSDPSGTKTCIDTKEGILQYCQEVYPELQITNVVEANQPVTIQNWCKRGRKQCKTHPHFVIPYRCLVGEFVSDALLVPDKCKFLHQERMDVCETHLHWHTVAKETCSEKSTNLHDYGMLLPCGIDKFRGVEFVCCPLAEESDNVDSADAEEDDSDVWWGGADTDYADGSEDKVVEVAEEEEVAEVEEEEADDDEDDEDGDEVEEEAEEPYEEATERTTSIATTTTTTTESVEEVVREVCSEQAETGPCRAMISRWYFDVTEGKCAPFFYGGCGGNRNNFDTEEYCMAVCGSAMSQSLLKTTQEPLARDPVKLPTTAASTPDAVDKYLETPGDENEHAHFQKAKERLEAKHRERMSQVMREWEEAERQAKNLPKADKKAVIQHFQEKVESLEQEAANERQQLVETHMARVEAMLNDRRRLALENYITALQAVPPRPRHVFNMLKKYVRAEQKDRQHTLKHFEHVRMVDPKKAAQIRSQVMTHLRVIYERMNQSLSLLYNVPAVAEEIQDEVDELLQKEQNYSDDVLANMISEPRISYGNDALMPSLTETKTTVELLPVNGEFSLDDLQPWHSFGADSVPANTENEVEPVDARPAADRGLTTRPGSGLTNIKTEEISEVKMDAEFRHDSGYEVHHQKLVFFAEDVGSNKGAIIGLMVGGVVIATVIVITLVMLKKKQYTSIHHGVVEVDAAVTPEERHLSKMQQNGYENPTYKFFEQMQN

Mus musculus [2] = assay: (§1) Cognitive enhancing activity in Albino Swiss (CD-1) mouse model of scopolamine induced cognitive dysfunction and amnesia assessed as prolongation of step-through latency in retention trail at 10 mg/kg, ip pretreated for 30 mins followed by scopolamine administration and measured after 30 mins by passive avoidance test; format: functional, organism-based; conditions: time 60.0 min
Mus musculus [3] = assay: as §1, with “acquisition phase” for “retention trail”; format: functional, organism-based; conditions: time 60.0 min
[4] = target: Sodium- and chloride-dependent GABA transporter 1 (Mus musculus) (UniProt P31648); assay: Inhibition of NO 711 marker binding to mouse GAT1 assessed as residual activity at 100 uM by LC-ESI-MS/MS based competitive MS binding assay relative to control
[5] = target: Amyloid-beta precursor protein (Homo sapiens) (UniProt P05067); assay: Inhibition of soluble amyloid beta40 (unknown origin) aggregation at 10 uM measured after 24 hrs by ThT fluorescence based assay relative to control
[6] = target: Amyloid-beta precursor protein (Homo sapiens) (UniProt P05067); assay: Inhibition of soluble amyloid beta40 (unknown origin) aggregation assessed as lag time of amyloid polymerization at 10 uM measured after 24 hrs by ThT fluorescence based assay (reference value: […] min)
[7] = target: Amyloid-beta precursor protein (Homo sapiens) (UniProt P05067); assay: Inhibition of soluble amyloid beta40 (unknown origin) aggregation assessed as elongation constant at 10 uM measured after 24 hrs by ThT fluorescence based assay (reference value: […] /M/min)
[8] = Inhibition of mouse GAT3 transfected in HEK293 cells assessed as reduction in [3H]-GABA uptake preincubated for 25 mins followed by [3H]-GABA addition and measured after 4 mins by liquid scintillation counting analysis; format: cell-based; conditions: HEK293; read-out: pIC50 (converted)
[9] = target: Acetylcholinesterase (Electrophorus electricus) (UniProt O42275); assay: Inhibition of electric eel AChE using acetylthiocholine iodide as substrate at 10 uM preincubated for 5 mins followed by substrate addition and measured after 5 mins by DTNB reagent based Ellman's method relative to control; conditions: time 10.0 min
Acetylcholinesterase (Electrophorus electricus), sequence (O42275 24-633 limits assumed): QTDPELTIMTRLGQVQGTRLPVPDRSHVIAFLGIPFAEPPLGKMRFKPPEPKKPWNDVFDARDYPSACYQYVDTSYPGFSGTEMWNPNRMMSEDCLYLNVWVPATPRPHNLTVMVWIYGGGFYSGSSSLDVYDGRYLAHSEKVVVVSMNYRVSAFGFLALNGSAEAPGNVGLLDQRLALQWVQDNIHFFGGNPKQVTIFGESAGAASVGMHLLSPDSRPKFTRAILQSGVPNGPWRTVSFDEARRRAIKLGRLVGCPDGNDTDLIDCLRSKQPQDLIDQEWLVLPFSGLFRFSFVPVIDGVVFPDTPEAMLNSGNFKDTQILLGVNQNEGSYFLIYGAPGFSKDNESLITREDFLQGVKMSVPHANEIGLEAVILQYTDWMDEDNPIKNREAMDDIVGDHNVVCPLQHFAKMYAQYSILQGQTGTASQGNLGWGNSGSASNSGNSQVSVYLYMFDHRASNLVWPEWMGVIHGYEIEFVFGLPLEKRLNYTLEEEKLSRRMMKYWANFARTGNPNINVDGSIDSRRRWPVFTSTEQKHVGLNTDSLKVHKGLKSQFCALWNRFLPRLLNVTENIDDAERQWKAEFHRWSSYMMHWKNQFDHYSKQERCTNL

[10] = target: Amyloid-beta precursor protein (Homo sapiens) (UniProt P05067); assay: Inhibition of soluble amyloid beta40 (unknown origin) aggregation assessed as inhibition of fibril elongation by measuring fold reduction in elongation ratio at 10 uM measured after 24 hrs by ThT fluorescence based assay
[11] = target: Amyloid-beta precursor protein (Homo sapiens) (UniProt P05067); assay: Inhibition of soluble amyloid beta40 (unknown origin) aggregation assessed as nucleation constant at 10 uM measured after 24 hrs by ThT fluorescence based assay (reference value: […] 10^-4/min)
[12] = target: Amyloid-beta precursor protein (Homo sapiens) (UniProt P05067); assay: Inhibition of amyloid beta40 (unknown origin) aggregation at 10 uM measured every 5 mins by ThT fluorescence based assay relative to control
Mus musculus [13] = assay: as §1, with “30” for “10”; format: functional, organism-based; conditions: time 60.0 min
[14] = target: Amyloid-beta precursor protein (Homo sapiens) (UniProt P05067); assay: Inhibition of amyloid beta42 (unknown origin) aggregation expressed in Escherichia coli BL21 (DE3) at 10 uM measured every 5 mins by ThT fluorescence based assay relative to control
[15] = target: T1, Sodium- and chloride-dependent GABA transporter 1 (Mus musculus, UniProt P31648); assay: Inhibition of mouse GAT1 transfected in HEK293 cells assessed as reduction in [3H]-GABA uptake preincubated for 25 mins followed by [3H]-GABA addition and measured after 4 mins by liquid scintillation counting analysis; format: cell-based; conditions: read-out: pIC50 (converted)
Mus musculus [16] = assay: Cognitive enhancing activity in Albino Swiss (CD-1) mouse model of scopolamine induced memory deficits and amnesia assessed as increase in discrimination index at 30 mg/kg, ip pretreated for 30 mins followed by scopolamine administration and measured after 30 mins by Novel object recognition test; format: functional, organism-based; conditions: time 60.0 min
[17] = target: Cholinesterase (Equus caballus) (UniProt P81908); assay: Mixed type inhibition of equine serum BuChE using varying concentrations of butyrylthiocholine iodide as substrate preincubated for 5 mins followed by substrate addition and measured after 5 mins by Ellman's method based Lineweaver-Burk plot analysis; conditions: time 10.0 min
Cholinesterase (Equus caballus), sequence (P81908 whole entry): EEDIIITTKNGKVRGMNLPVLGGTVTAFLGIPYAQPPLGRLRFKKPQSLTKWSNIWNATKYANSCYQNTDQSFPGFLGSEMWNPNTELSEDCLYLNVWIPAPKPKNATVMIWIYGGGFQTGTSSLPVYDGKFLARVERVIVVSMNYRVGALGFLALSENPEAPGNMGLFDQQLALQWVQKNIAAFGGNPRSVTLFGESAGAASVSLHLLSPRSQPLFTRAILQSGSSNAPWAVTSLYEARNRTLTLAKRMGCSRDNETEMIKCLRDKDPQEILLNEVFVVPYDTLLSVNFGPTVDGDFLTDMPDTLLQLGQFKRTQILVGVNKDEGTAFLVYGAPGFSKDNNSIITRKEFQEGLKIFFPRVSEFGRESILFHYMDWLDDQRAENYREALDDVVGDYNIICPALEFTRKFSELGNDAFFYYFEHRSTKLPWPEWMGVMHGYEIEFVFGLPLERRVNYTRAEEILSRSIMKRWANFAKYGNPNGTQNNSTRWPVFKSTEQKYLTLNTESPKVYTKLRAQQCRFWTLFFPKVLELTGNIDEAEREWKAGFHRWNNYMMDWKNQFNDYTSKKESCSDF

GABA transporter 4 [18] = target: T2, GABA transporter 4 (Mus musculus, UniProt P31650); assay: Inhibition of mouse GAT4 transfected in HEK293 cells assessed as reduction in [3H]-GABA uptake preincubated for 25 mins followed by [3H]-GABA addition and measured after 4 mins by liquid scintillation counting analysis; format: cell-based; conditions: read-out: pIC50 (converted)
T2 sequence (P31650 whole entry): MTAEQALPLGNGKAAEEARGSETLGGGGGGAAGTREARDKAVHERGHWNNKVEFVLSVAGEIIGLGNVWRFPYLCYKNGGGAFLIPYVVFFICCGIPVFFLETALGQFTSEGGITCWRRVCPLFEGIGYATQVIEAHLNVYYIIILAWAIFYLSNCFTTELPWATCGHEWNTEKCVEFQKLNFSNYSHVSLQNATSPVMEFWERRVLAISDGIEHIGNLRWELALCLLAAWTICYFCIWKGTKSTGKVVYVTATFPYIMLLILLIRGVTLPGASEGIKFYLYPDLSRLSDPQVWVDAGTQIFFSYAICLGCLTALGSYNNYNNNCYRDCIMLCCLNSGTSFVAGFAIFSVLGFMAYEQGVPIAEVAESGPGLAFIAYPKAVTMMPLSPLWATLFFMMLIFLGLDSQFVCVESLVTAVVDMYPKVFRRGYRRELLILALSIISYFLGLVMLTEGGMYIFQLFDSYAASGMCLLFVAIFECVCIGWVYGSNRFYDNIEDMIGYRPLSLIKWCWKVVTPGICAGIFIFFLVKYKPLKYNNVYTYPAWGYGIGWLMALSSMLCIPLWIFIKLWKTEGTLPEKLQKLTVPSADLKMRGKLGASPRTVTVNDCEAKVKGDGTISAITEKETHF

[19] = target: Cholinesterase (Equus caballus) (UniProt P81908); assay: Mixed type inhibition of equine serum BuChE using varying concentrations of butyrylthiocholine iodide as substrate preincubated for 5 mins followed by substrate addition and measured after 5 mins by Ellman's method based Cornish-Bowden plot analysis; conditions: time 10.0 min
[20] = target: Amyloid-beta precursor protein (Homo sapiens) (UniProt P05067); assay: Inhibition of soluble amyloid beta40 (unknown origin) aggregation assessed as time of half-aggregation at 10 uM measured after 24 hrs by ThT fluorescence based assay (reference value: […] min)
HepG2 = assay: Cytotoxicity against human HepG2 cells assessed as reduction in cell viability at 0.1 to 1 uM incubated for 72 hrs by MTS assay; format: toxicity, cell-based; conditions: hepg2, 72 h, dose 0.1-1 µM
HEK293 [21] = assay: Cytotoxicity against HEK293 cells assessed as reduction in cell viability at 0.1 to 1 uM incubated for 72 hrs by MTS assay; format: toxicity, cell-based; conditions: human, hek293, 72 h, dose 0.1-1 µM
GABA transporter 2 [22] = target: T3, GABA transporter 2 (Mus musculus, UniProt P31651); assay: Inhibition of mouse GAT2 transfected in HEK293 cells assessed as reduction in [3H]-GABA uptake preincubated for 25 mins followed by [3H]-GABA addition and measured after 10 mins by liquid scintillation counting analysis; format: cell-based; conditions: read-out: pIC50 (converted)
T3 sequence (P31651 whole entry): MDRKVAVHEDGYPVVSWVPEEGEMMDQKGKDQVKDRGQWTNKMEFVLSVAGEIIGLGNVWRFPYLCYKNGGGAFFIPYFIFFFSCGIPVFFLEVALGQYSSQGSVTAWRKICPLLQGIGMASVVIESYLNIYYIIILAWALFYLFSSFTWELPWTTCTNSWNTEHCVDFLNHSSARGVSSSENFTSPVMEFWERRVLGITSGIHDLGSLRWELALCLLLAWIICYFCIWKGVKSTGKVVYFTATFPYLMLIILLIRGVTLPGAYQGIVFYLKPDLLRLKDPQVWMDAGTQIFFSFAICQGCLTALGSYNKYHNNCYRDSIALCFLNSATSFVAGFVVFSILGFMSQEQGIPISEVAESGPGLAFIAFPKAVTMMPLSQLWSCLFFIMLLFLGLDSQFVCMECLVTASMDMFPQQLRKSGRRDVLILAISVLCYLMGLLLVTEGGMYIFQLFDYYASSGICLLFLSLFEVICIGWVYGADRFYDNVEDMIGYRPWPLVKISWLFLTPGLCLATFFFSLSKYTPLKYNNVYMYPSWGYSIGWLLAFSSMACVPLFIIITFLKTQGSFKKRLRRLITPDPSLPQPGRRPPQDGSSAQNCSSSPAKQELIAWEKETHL

Beta-secretase 1 = Beta-secretase 1 (Homo sapiens, UniProt P56817)
Beta-secretase 1, sequence (P56817 whole entry): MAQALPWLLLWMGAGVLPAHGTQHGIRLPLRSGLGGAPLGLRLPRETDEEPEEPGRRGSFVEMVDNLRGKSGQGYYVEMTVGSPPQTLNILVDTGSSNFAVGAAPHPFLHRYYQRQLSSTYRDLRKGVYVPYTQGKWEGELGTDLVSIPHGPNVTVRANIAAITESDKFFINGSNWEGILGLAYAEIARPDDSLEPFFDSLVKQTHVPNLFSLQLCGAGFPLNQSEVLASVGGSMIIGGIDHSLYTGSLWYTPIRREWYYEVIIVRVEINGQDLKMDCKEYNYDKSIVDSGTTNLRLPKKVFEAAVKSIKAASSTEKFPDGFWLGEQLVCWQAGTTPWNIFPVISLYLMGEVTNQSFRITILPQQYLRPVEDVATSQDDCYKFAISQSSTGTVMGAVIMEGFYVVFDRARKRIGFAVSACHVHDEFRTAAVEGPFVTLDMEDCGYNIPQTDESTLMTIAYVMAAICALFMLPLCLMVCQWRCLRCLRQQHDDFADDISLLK

[23] = target: T1, Sodium- and chloride-dependent GABA transporter 1; assay: Inhibition of mouse GAT1 expressed in HEK293 cells assessed as reduction in [3H]-GABA uptake; format: cell-based
HEK293 [24] = assay: Inhibition of mouse GAT3 transfected in HEK293 cells assessed as reduction in [3H]-GABA uptake by measuring residual activity at 100 uM relative to control; format: cell-based
[25] = target: T4, GABA transporter 2 (Mus musculus) (UniProt P31651); assay: Inhibition of mouse GAT2 transfected in HEK293 cells assessed as reduction in [3H]-GABA uptake by measuring residual activity at 100 uM relative to control; format: cell-based
T4 sequence (whole entry): T3 sequence (P31651 whole entry)

GABA transporter 4 [26] = target: T2, GABA transporter 4; assay: Inhibition of mouse GAT4 transfected in HEK293 cells assessed as reduction in [3H]-GABA uptake; format: cell-based
GABA transporter 2 [27] = target: T3, GABA transporter 2; assay: Inhibition of mouse GAT2 transfected in HEK293 cells assessed as reduction in [3H]-GABA uptake; format: cell-based
[28] = Inhibition of mouse GAT3 transfected in HEK293 cells assessed as reduction in [3H]-GABA uptake; format: cell-based
Mus musculus [29] = assay: as §1, with “10 to 30” for “10”; format: functional, organism-based; conditions: dose 10-30 mg/kg, time 60.0 min
Mus musculus [30] = assay: as §1, with “acquisition phase” for “retention trail”, “30” for “10”; format: functional, organism-based; conditions: time 60.0 min
[31] = target: Amyloid-beta precursor protein (Homo sapiens) (UniProt P05067); assay: Inhibition of soluble amyloid beta40 (unknown origin) aggregation assessed as fold reduction in nucleation ratio at 10 uM measured after 24 hrs by ThT fluorescence based assay
[32] = target: T1, Sodium- and chloride-dependent GABA transporter 1; assay: Inhibition of NO 711 marker binding to mouse GAT1 by LC-ESI-MS/MS based competitive MS binding assay

Cholinesterase, sequence (P81908 whole entry): as the sequence (P81908 whole entry) above

In the case of CN(CCOCCn1c2ccccc2c2ccccc21)C(CCN)C(=O)NCc1ccccc1 (configuration not stated), the IC50 (Cholinesterase) is reported as 173 nM, the TIME [1] is reported as 2.09 h and the Activity (Mus musculus [2]) is reported as “inactive”. The Activity (Mus musculus [3]) was “Active”, the Activity [4] was 71% and the inhibition [5] was 78.6%. The TIME [6] was 0.792 h, the K [7] was 7010 M⁻¹ min⁻¹ and the IC50 [8] was 15.1 µM. The inhibition [9] was under 10%, the fold change (FC) [10] was 2 and the K [11] was 1.34 10^-4/min. For the same compound, the inhibition [12] was 78.9%, the Activity (Mus musculus [13]) was “Active” and the inhibition [14] was 31.7%. The IC50 [15] was 30.9 µM, the Activity (Mus musculus [16]) was “inactive” and the inhibition [17] was “Active”. The IC50 (GABA transporter 4 [18]) was 25.1 µM, the inhibition [19] was “Active” and the T1/2 [20] was 1.44 h. The Activity (HepG2) was “Non-Toxic”, the Activity (HEK293 [21]) was “Non-Toxic” and the IC50 (GABA transporter 2 [22]) was 15.8 µM. The IC50 (Beta-secretase 1) was 9.42 µM.
O=C(O)C1=CN(CC/C=C/c2ccccc2-c2ccc(Cl)cc2Cl)CCC1 gave an IC50 ([23]; read-out: IC50) of 37 nM, an Activity (HEK293 [24]) of 91% and an Activity [25] of 73%. For the same compound, the IC50 (GABA transporter 4 [26]) was 63.1 µM.
For O=C(O)C1=CN(CC/C=C/c2ccccc2-c2ccccc2)CCC1, the IC50 (GABA transporter 2 [27]) was 135 µM, the IC50 ([23]; read-out: IC50) was 62 nM and the IC50 ([23]; read-out: pIC50 (converted)) was 162 nM. For the same compound, the IC50 [28] was 324 µM and the IC50 (GABA transporter 4 [26]) was 288 µM.
In the case of CN(CCOCCN1c2ccccc2Sc2ccccc21)C(CCN)C(=O)NCc1ccc(Cl)cc1 (configuration not stated), the IC50 (Cholinesterase) is reported as 559 nM, the TIME [1] is reported as 6.46 h and the Activity (Mus musculus [29]) is reported as “inactive”. The inhibition [5] was 85.5%, the TIME [6] was 2.91 h and the K [7] was 4440 M⁻¹ min⁻¹. For the same compound, the Activity (Mus musculus [30]) was “Active”, the IC50 [8] was 6.31 µM and the fold change (FC) [31] was 11. The inhibition [9] was 42%, the fold change (FC) [10] was 2 and the K [11] was 4.04 10^-4/min. The inhibition [12] was 98.5%, the inhibition [14] was 34.6% and the IC50 [15] was 9.77 µM. The Activity (Mus musculus [16]) was “Active”, the IC50 (GABA transporter 4 [18]) was 12 µM and the T1/2 [20] was 4.68 h. For the same compound, the Activity (HepG2) was “Non-Toxic”, the Activity (HEK293 [21]) was “Non-Toxic” and the Ki [32] was 45.7 µM. For the same compound, the IC50 (GABA transporter 2 [22]) was 12.3 µM and the IC50 (Beta-secretase 1) was 1.57 µM.
